In patent US20230339981A1, “KRAS G12D MODULATING COMPOUNDS” (priority 2022, published 2023):

Experiments:
GDP-loaded KRAS G12D = GDP-loaded KRAS G12D (Homo sapiens (Human), UniProt P01116, G12D); test: KRAS G12D (GDP) biochemical assay (TR-FRET probe displacement); format: binding; settings: 2 hours
Outline: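 TR-FRET probe displacement: 1:3 DMSO serial dilutions pre-incubated 30 min with GDP-bound KRAS G12D, followed by Eu-streptavidin/probe for 2 h at room temperature (Hepes pH 7.4, NaCl, MgCl2, Tween-20 buffer). IC50 defined as concentration halving TR-FRET ratio, from sigmoidal dose-response fit.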

GP2D (KRAS G12D) cells = test: 2D cell viability assay (CellTiter-Glo); format: cell-based; settings: GP2d, 96 h, 4 days
Outline: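 Viability was read by CellTiter-Glo after 4 days at 37 °C of 2D culture of KRAS G12D GP2D cells (1000/well, RPMI, 10% FBS) on pre-spotted threefold compound dilutions. EC50 was fitted with a sigmoidal dose-response model as the point of half-maximal luminescence loss.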

Chain of GDP-loaded KRAS G12D (P01116-2 other isoform, or with tags, fused parts or gaps G12D): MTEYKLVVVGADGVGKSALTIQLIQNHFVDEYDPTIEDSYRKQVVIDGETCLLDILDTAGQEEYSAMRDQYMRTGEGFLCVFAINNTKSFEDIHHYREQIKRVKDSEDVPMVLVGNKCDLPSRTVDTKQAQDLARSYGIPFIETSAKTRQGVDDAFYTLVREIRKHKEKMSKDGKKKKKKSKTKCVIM

## Oc1cc(-c2nc3c4c(nc(OC[C@@]56CCCN5C[C@H](F)C6)nc4c2F)N2C[C@H]4CC[C@H](N4)[C@H]2CO3)c2c(C=C(F)F)c(F)ccc2c1 [Example 10, 5-(2,2-difluorovinyl)-6-fluoro-4-((5aS,6S,9R)-1-fluoro-12-(((2R,7aS)-2-fluorotetrahydro-1H-pyrrolizin-7a(5H)-yl)methoxy)-5a,6,7,8,9,10-hexahydro-5H-4-oxa-3,10a,11,13,14-pentaaza-6,9-methanonaphtho[1,8-ab]heptalen-2-yl)naphthalen-2-ol]
GDP-loaded KRAS G12D
  IC50: 18 nM
GP2D (KRAS G12D) cells
  EC50: 250 nM

## Oc1cc(-c2nc3c4c(nc(OC[C@@]56CCCN5C[C@H](F)C6)nc4c2F)N2C[C@H]4CC[C@H](N4)[C@H]2CO3)c2c(OC(F)(F)F)c(F)ccc2c1 [Example 7, 6-fluoro-4-((5aS,6S,9R)-1-fluoro-12-(((2R,7aS)-2-fluorotetrahydro-1H-pyrrolizin-7a(5H)-yl)methoxy)-5a,6,7,8,9,10-hexahydro-5H-4-oxa-3,10a,11,13,14-pentaaza-6,9-methanonaphtho[1,8-ab]heptalen-2-yl)-5-(trifluoromethoxy)naphthalen-2-ol]
GDP-loaded KRAS G12D
  IC50: 0.6 nM
GP2D (KRAS G12D) cells
  EC50: 16 nM

## C#Cc1c(F)ccc2cc(N)cc(-c3nc4c5c(nc(OC[C@@]67CCCN6C[C@H](F)C7)nc5c3F)N3C[C@H]5CC[C@H](N5)[C@@H]3CC[C@H]4C)c12 [Example 194, 5-ethynyl-6-fluoro-4-((4R,6aS,7S,10R)-1-fluoro-13-(((2R,7aS)-2-fluorotetrahydro-1H-pyrrolizin-7a(5H)-yl)methoxy)-4-methyl-5,6,6a,7,8,9,10,11-octahydro-4H-3,11a,12,14,15-pentaaza-7,10-methanocyclohepta[4,5]cycloocta[1,2,3-de]naphthalen-2-yl)naphthalen-2-amine]
GDP-loaded KRAS G12D
  IC50: 31 nM
GP2D (KRAS G12D) cells
  EC50: 70 nM

## Fc1ccc(-c2nc3c4c(nc(OC[C@@]56CCCN5C[C@H](F)C6)nc4c2F)N2C[C@H]4CC[C@H](N4)[C@H]2CO3)c2ccccc12 [Example 72, (5aS,6S,9R)-1-fluoro-2-(4-fluoronaphthalen-1-yl)-12-(((2R,7aS)-2-fluorotetrahydro-1H-pyrrolizin-7a(5H)-yl)methoxy)-5a,6,7,8,9,10-hexahydro-5H-4-oxa-3,10a,11,13,14-pentaaza-6,9-methanonaphtho[1,8-ab]heptalene]
GDP-loaded KRAS G12D
  IC50: 510 nM
GP2D (KRAS G12D) cells
  EC50: > 1000 nM

## Oc1cc(-c2nc3c4c(nc(OC[C@@]56CCCN5C[C@H](F)C6)nc4c2F)N2C[C@H]4CC[C@H](N4)[C@H]2CC3)c2c(OC3CC3)c(F)ccc2c1 [Example 37, 5-cyclopropoxy-6-fluoro-4-((5aR,6S,9R)-1-fluoro-12-(((2R,7aS)-2-fluorotetrahydro-1H-pyrrolizin-7a(5H)-yl)methoxy)-4,5,5a,6,7,8,9,10-octahydro-3,10a,11,13,14-pentaaza-6,9-methanonaphtho[1,8-ab]heptalen-2-yl)naphthalen-2-ol]
GDP-loaded KRAS G12D
  IC50: 1 nM
GP2D (KRAS G12D) cells
  EC50: 9 nM

## C#Cc1c(F)ccc2cccc(-c3nc4c5c(nc(OC[C@@]67CCCN6[C@H](COC(C(F)(F)F)C(F)(F)F)CC7)nc5c3F)N3C[C@H]5CC[C@H](N5)[C@H]3CC4)c12 [Example 150, (5aR,6S,9R)-2-(8-ethynyl-7-fluoronaphthalen-1-yl)-1-fluoro-12-(((3S,7aS)-3-(((1,1,1,3,3,3-hexafluoropropan-2-yl)oxy)methyl)tetrahydro-1H-pyrrolizin-7a(5H)-yl)methoxy)-4,5,5a,6,7,8,9,10-octahydro-3,10a,11,13,14-pentaaza-6,9-methanonaphtho[1,8-ab]heptalene]
GDP-loaded KRAS G12D
  IC50: 0.2 nM
GP2D (KRAS G12D) cells
  EC50: 47.2 nM

## C#Cc1c(F)ccc2cccc(-c3nc4c5c(nc(OC[C@@]67CCCN6[C@H](COc6cc(C(F)(F)F)cnn6)CC7)nc5c3F)N3C[C@H]5CC[C@H](N5)[C@H]3CCC4)c12 [Example 198, (6aR,7S,10R)-2-(8-ethynyl-7-fluoronaphthalen-1-yl)-1-fluoro-13-(((3S,7aS)-3-(((5-(trifluoromethyl)pyridazin-3-yl)oxy)methyl)tetrahydro-1H-pyrrolizin-7a(5H)-yl)methoxy)-5,6,6a,7,8,9,10,11-octahydro-4H-3,11a,12,14,15-pentaaza-7,10-methanocyclohepta[4,5]cycloocta[1,2,3-de]naphthalene]
GDP-loaded KRAS G12D
  IC50: 0.02 nM
GP2D (KRAS G12D) cells
  EC50: 2.4 nM

## Oc1cc(-c2nc3c4c(nc(OCC5(CN6CC[C@H](OC(F)(F)F)C6)CC5)nc4c2F)N2C[C@H]4CC[C@H](N4)[C@H]2CC3)c2c(OC(F)(F)F)c(F)ccc2c1 [Example 103, 6-fluoro-4-((5aR,6S,9R)-1-fluoro-12-((1-(((S)-3-(trifluoromethoxy)pyrrolidin-1-yl)methyl)cyclopropyl)methoxy)-4,5,5a,6,7,8,9,10-octahydro-3,10a,11,13,14-pentaaza-6,9-methanonaphtho[1,8-ab]heptalen-2-yl)-5-(trifluoromethoxy)naphthalen-2-ol]
GDP-loaded KRAS G12D
  IC50: 5.3 nM
GP2D (KRAS G12D) cells
  EC50: 62.6 nM

## C#Cc1c(F)ccc2cccc(-c3nc4c5c(nc(OC[C@@]67CCCN6C[C@@H](OC(C(F)(F)F)(C(F)(F)F)C(F)(F)F)C7)nc5c3F)N3C[C@H]5CC[C@H](N5)[C@H]3CC4)c12 (stereo in doubt) [Example 135, (5aR,6S,9R)-2-(8-ethynyl-7-fluoronaphthalen-1-yl)-1-fluoro-12-((cis-2-((1,1,1,3,3,3-hexafluoro-2-(trifluoromethyl)propan-2-yl)oxy)tetrahydro-1H-pyrrolizin-7a(5H)-yl)methoxy)-4,5,5a,6,7,8,9,10-octahydro-3,10a,11,13,14-pentaaza-6,9-methanonaphtho[1,8-ab]heptalene]
GDP-loaded KRAS G12D
  IC50: 88.1 nM
GP2D (KRAS G12D) cells
  EC50: 100 nM

## C#Cc1c(F)ccc2cc(O)cc(-c3nc4c5c(nc(OCC6(CN7CC[C@@H](C(F)(F)F)C7)CC6)nc5c3F)N3C[C@H]5CC[C@H](N5)[C@H]3CO4)c12 [Example 43, 5-ethynyl-6-fluoro-4-((5aS,6S,9R)-1-fluoro-12-((1-(((R)-3-(trifluoromethyl)pyrrolidin-1-yl)methyl)cyclopropyl)methoxy)-5a,6,7,8,9,10-hexahydro-5H-4-oxa-3,10a,11,13,14-pentaaza-6,9-methanonaphtho[1,8-ab]heptalen-2-yl)naphthalen-2-ol]
GDP-loaded KRAS G12D
  IC50: 0.6 nM
GP2D (KRAS G12D) cells
  EC50: 5 nM

## C#Cc1c(F)ccc2cccc(-c3nc4c5c(nc(OC[C@@]67CCCN6C[C@@]6(CC6(F)F)C7)nc5c3F)N3C[C@H]5CC[C@H](N5)[C@H]3CC4)c12 [Example 121, (5aR,6S,9R)-12-(((1S,7a'S)-2,2-difluorodihydro-1′H,3′H-spiro[cyclopropane-1,2′-pyrrolizin]-7a′(5′H)-yl)methoxy)-2-(8-ethynyl-7-fluoronaphthalen-1-yl)-1-fluoro-4,5,5a,6,7,8,9,10-octahydro-3,10a,11,13,14-pentaaza-6,9-methanonaphtho[1,8-ab]heptalene]
GDP-loaded KRAS G12D
  IC50: 0.3 nM
GP2D (KRAS G12D) cells
  EC50: 7 nM

## C#Cc1c(F)ccc2cccc(-c3nc4c5c(nc(OC[C@@]67CCCN6[C@H](CSc6cc(C(F)(F)F)ncn6)CC7)nc5c3F)N3C[C@H]5CC[C@H](N5)[C@H]3CCC4)c12 [Example 201, (6aR,7S,10R)-2-(8-ethynyl-7-fluoronaphthalen-1-yl)-1-fluoro-13-(((3S,7aS)-3-(((6-(trifluoromethyl)pyrimidin-4-yl)thio)methyl)tetrahydro-1H-pyrrolizin-7a(5H)-yl)methoxy)-5,6,6a,7,8,9,10,11-octahydro-4H-3,11a,12,14,15-pentaaza-7,10-methanocyclohepta[4,5]cycloocta[1,2,3-de]naphthalene]
GDP-loaded KRAS G12D
  IC50: 0.02 nM
GP2D (KRAS G12D) cells
  EC50: 10 nM

## Oc1cc(-c2nc3c4c(nc(OC[C@@]56CCCN5C[C@H](F)C6)nc4c2F)N2C[C@H]4CC[C@H](N4)[C@H]2CO3)c2c(F)c(Cl)ccc2c1 [Example 6, 6-chloro-5-fluoro-4-((5aS,6S,9R)-1-fluoro-12-(((2R,7aS)-2-fluorotetrahydro-1H-pyrrolizin-7a(5H)-yl)methoxy)-5a,6,7,8,9,10-hexahydro-5H-4-oxa-3,10a,11,13,14-pentaaza-6,9-methanonaphtho[1,8-ab]heptalen-2-yl)naphthalen-2-ol]
GDP-loaded KRAS G12D
  IC50: 2 nM
GP2D (KRAS G12D) cells
  EC50: 70 nM

## C#Cc1c(F)ccc2cccc(-c3nc4c5c(nc(OCC6(CN7CCN(CC(F)(F)F)CC7)CC6)nc5c3F)N3C[C@H]5CC[C@H](N5)[C@@H]3[C@@H](C)C4)c12 [Example 101, (5S,5aS,6S,9R)-2-(8-ethynyl-7-fluoronaphthalen-1-yl)-1-fluoro-5-methyl-12-((1-((4-(2,2,2-trifluoroethyl)piperazin-1-yl)methyl)cyclopropyl)methoxy)-4,5,5a,6,7,8,9,10-octahydro-3,10a,11,13,14-pentaaza-6,9-methanonaphtho[1,8-ab]heptalene]
GDP-loaded KRAS G12D
  IC50: 12.7 nM
GP2D (KRAS G12D) cells
  EC50: 175 nM

## CCc1c(F)ccc2cccc(-c3nc4c5c(nc(OC[C@@]67CCCN6C[C@H](F)C7)nc5c3F)N3C[C@H]5CC[C@H](N5)[C@@H]3[C@@H](C)C4)c12 [Example 131, (5S,5aS,6S,9R)-2-(8-ethyl-7-fluoronaphthalen-1-yl)-1-fluoro-12-(((2R,7aS)-2-fluorotetrahydro-1H-pyrrolizin-7a(5H)-yl)methoxy)-5-methyl-4,5,5a,6,7,8,9,10-octahydro-3,10a,11,13,14-pentaaza-6,9-methanonaphtho[1,8-ab]heptalene]
GDP-loaded KRAS G12D
  IC50: 55.3 nM
GP2D (KRAS G12D) cells
  EC50: 100 nM

## C#Cc1c(F)ccc2cccc(-c3nc4c5c(nc(OC[C@@]67CCCN6C[C@H](F)C7)nc5c3F)N3C[C@H]5CC[C@H](N5)[C@@H]3[C@@H](C)CC4)c12 [Example 156, (6S,6aS,7S,10R)-2-(8-ethynyl-7-fluoronaphthalen-1-yl)-1-fluoro-13-(((2R,7aS)-2-fluorotetrahydro-1H-pyrrolizin-7a(5H)-yl)methoxy)-6-methyl-5,6,6a,7,8,9,10,11-octahydro-4H-3,11a,12,14,15-pentaaza-7,10-methanocyclohepta[4,5]cycloocta[1,2,3-de]naphthalene]
GDP-loaded KRAS G12D
  IC50: 100 nM
GP2D (KRAS G12D) cells
  EC50: 100 nM
